Measured values: patent publication US20170100383A1, “TOPICAL FORMULATIONS FOR PREVENTING SKIN INFECTION” (Practical Solution, Inc., priority 2015, published 2017)
Like-named read-outs stand apart in the source and are kept apart here.

How the values were obtained:
Format in all cases: cell-based
Details in all cases: 48 h
[1] = system: Staphylococcus aureus ATCC6538; experiment: Broth microdilution inhibitory rate (MIC assay) against Staphylococcus aureus
Description: (§1) Staphyloccocus aureus strain ATCC 6538, Bacillus subtilis ATCC9372 or Candida albicans ATCC10231 each (0.1 ml of a bacterial suspension having 10^8 cfu/ml bacteria) were inoculated into the mixture. […] Test tubes containing the mixtures were placed in a 37° C. incubator and incubated for 48 hours. The concentration of bacterial cells in each test tube was measured. The inhibitory rates were calculated as below:
(§2) [(Positive control average colony count−Test average colony count)/Positive control average colony count]×100%
(§3) Positive controls are the tubes having broth and microorganisms but no antimicrobial agents.

[2] = system: Bacillus subtilis ATCC9372
Description: as §1, §2, §3

[3] = system: Candida albicans ATCC10231; experiment: Broth microdilution inhibitory rate (MIC assay) against Candida albicans
Description: as §1, §2, §3

[4] = dilution 1* of initial concentration (CHG 5 g/L, CPC 0.5 g/L), 37° C.
[5] = dilution 1/10 of initial concentration (CHG 5 g/L, CPC 0.5 g/L)
[6] = dilution 1/100 of initial concentration (CHG 5 g/L, CPC 0.5 g/L)
[7] = dilution 1/1000 of initial concentration (CHG 5 g/L, CPC 0.5 g/L)
[8] = dilution 1/2000 of initial concentration (CHG 5 g/L, CPC 0.5 g/L)
[9] = dilution 1/4000 of initial concentration (CHG 5 g/L, CPC 0.5 g/L)
[10] = dilution 1/8000 of initial concentration (CHG 5 g/L, CPC 0.5 g/L)

SMILES: N=C(NCCCCCCNC(=N)NC(=N)Nc1ccc(Cl)cc1)NC(=N)Nc1ccc(Cl)cc1.O=C(O)[C@H](O)[C@@H](O)[C@H](O)[C@H](O)CO.O=C(O)[C@H](O)[C@@H](O)[C@H](O)[C@H](O)CO [CHG, chlorhexidine digluconate]
- Anti-microbial activity (inhibitory rate) [1, 4]: 100%
- Anti-microbial activity (inhibitory rate) [1, 5]: 100%
- Anti-microbial activity (inhibitory rate) [1, 6]: 100%
- Anti-microbial activity (inhibitory rate) [1, 7]: 100%
- Anti-microbial activity (inhibitory rate) [1, 8]: 100%
- Anti-microbial activity (inhibitory rate) [1, 9]: 100%
- Anti-microbial activity (inhibitory rate) [1, 10]: 78.43%
- Anti-microbial activity (inhibitory rate) [2, 4]: 100%
- Anti-microbial activity (inhibitory rate) [2, 5]: 100%
- Anti-microbial activity (inhibitory rate) [2, 6]: 100%
- Anti-microbial activity (inhibitory rate) [2, 7]: 100%
- Anti-microbial activity (inhibitory rate) [2, 8]: 100%
- Anti-microbial activity (inhibitory rate) [2, 9]: 100%
- Anti-microbial activity (inhibitory rate) [2, 10]: 99.99%
- Anti-microbial activity (inhibitory rate) ([2]; dilution 1/16000 of initial concentration (CHG 5 g/L, CPC 0.5 g/L)): 99.50%
- Anti-microbial activity (inhibitory rate) ([2]; dilution 1/32000 of initial concentration (CHG 5 g/L, CPC 0.5 g/L)): 90.83%
- Anti-microbial activity (inhibitory rate) [3, 4]: 100%
- Anti-microbial activity (inhibitory rate) [3, 5]: 100%
- Anti-microbial activity (inhibitory rate) [3, 6]: 100%
- Anti-microbial activity (inhibitory rate) [3, 7]: 97.76%
- Anti-microbial activity (inhibitory rate) [3, 8]: 93.92%
- Anti-microbial activity (inhibitory rate) [3, 9]: 90.41%
